# Read-outs that look alike come from different tables or passages of the source.
# Target: T1, OAT2-tv1 (Homo sapiens, UniProt Q9Y694)
# T1 sequence (Q9Y694 1-546 isoform Q9Y694-2): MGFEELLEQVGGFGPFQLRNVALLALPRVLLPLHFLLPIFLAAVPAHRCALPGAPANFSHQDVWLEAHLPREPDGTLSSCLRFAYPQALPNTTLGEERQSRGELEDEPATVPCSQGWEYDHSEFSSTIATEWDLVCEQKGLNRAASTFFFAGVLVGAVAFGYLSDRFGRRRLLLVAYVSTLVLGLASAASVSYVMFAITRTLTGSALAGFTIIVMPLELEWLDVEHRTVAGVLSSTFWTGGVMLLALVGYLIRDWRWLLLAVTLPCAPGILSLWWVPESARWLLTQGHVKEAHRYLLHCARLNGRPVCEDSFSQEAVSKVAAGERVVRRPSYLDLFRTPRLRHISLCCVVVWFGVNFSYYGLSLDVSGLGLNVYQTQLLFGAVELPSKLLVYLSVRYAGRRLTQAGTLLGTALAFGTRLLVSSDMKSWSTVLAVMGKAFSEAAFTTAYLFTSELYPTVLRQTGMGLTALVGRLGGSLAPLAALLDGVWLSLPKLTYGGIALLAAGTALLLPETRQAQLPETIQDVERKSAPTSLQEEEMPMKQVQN
# Test: Inhibition of [3H]penciclovir uptake into CHO-OAT2-tv1 cells
# Assay type: cell-based
# Settings: 5 min; for % Inhibition: inhibition of [3H]penciclovir uptake by CHO-OAT2-tv1 cells at the maximum concentration of test compound (Table 2, c1); for % Inhibition / IC50: room temperature; for cis-inhibition of penciclovir uptake: CHO-OAT2-tv1 cells, test compound 1 mM, [3H]penciclovir ∼30 nM
# Procedure: All experiments examining cellular radiolabeled compound uptake were conducted using cells grown to confluence in 24-well flat bottom plates. The transport solution consisted of WB (room temperature) containing radiolabeled compound and the uptake period for all experiments was at an initial rate time point of 5 min. [^3H]Penciclovir served as the probe OAT2 substrate. We also examined the uptake of [^3H]para-aminohippurate, [^3H]estrone-3-sulfate, [^14C]glutarate, [^14C]succinate, [^3H]paclitaxel, and [^3H]dehydroepiandrosterone sulfate by OAT2 since published studies indicate that they are substrates of the transport protein ([Sun et al., 2001]; [Kobayashi et al., 2005a]). […] For all cellular uptake experiments, the medium was aspirated and the cells were rinsed once with WB (0.3 ml). Following the uptake period, cells were washed three times with ice-cold WB (0.5 ml each wash). After aspirating the final wash the cells were lysed in 0.5 N NaOH/1% SDS (0.4 ml) for ∼30 min on an orbital shaker. 1 N HCl (0.2 ml) was then added to neutralize the NaOH, and the cell lysates (0.5 ml) were transferred to scintillation vials containing liquid scintillation cocktail (CytoScint ES, MP Biomedicals). Cellular radioactivity content was determined with a Beckman LS6500 liquid scintillation counter. Protein content was determined using the bicinchoninic acid method. See the Figure and Table Legends for additional details describing the experimental conditions used.
# The concentration of each Kreb’s cycle intermediate was 1 mM. Uptake was conducted for 5 min.
# [1] = inhibition of [3H]penciclovir uptake by CHO-OAT2-tv1 cells, read-out: IC50
Compound,% Inhibition,cis-inhibition of penciclovir uptake,IC50 [1],"IC50 (IC50, inhibition of [3H]penciclovir uptake by CHO-OAT2-tv1 cells)"
Nc1ccn(C[C@@H](CO)OCP(=O)(O)O)c(=O)n1 [Cidofovir],53%,–,–,–
O=C(O)C[C@@H](O)C(=O)O [D-malate],–,"none of the Kreb’s cycle intermediates tested, including succinate and fumarate, cis-inhibited penciclovir uptake",–,–
CC[C@H]1OC(=O)[C@H](C)[C@@H](O[C@H]2C[C@@](C)(OC)[C@@H](O)[C@H](C)O2)[C@H](C)[C@@H](O[C@@H]2O[C@H](C)C[C@H](N(C)C)[C@H]2O)[C@](C)(O)C[C@@H](C)C(=O)[C@H](C)[C@@H](O)[C@]1(C)O [Erythromycin],65%,–,12 ± 5.4 µM,–
CN(Cc1cnc2nc(N)nc(N)c2n1)c1ccc(C(=O)N[C@@H](CCC(=O)O)C(=O)O)cc1 [Methotrexate],76%,–,–,–
CCCN(CCC)S(=O)(=O)c1ccc(C(=O)O)cc1 [Probenecid],64%,–,–,–
CCCCC[C@H](O)/C=C/[C@H]1[C@H](O)CC(=O)[C@@H]1C/C=C\CCCC(=O)O [Prostaglandin E2],96%,–,26.8 ± 2.4 µM,–
CCOc1cc(CC(=O)N[C@@H](CC(C)C)c2ccccc2N2CCCCC2)ccc1C(=O)O [Repaglinide],99%,–,30 ± 3.6 µM,–
CCCc1nc2c(C)cc(-c3nc4ccccc4n3C)cc2n1Cc1ccc(-c2ccccc2C(=O)O)cc1 [Telmisartan],96%,–,17.1 ± 1.3 µM,–
CC[N+](CC)(CC)CC [Tetraethylammonium],42%,–,54.3 ± 33 µM,–
CCCCC[N+](CCCCC)(CCCCC)CCCCC [Tetrapentylammonium],49%,–,–,279 ± 142 µM
CCCCC(=O)N(Cc1ccc(-c2ccccc2-c2nnn[nH]2)cc1)[C@H](C(=O)O)C(C)C [Valsartan],86%,–,127 ± 29 µM,–
O=C(O)CC(=O)C(=O)O [oxaloacetate],–,"none of the Kreb’s cycle intermediates tested, including succinate and fumarate, cis-inhibited penciclovir uptake",–,–

# Source: publication PMC4594013 (Frontiers in Pharmacology, 2015)
